# From PubChem BioAssay (NCI)
#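 The compound was tested at five concentrations on cells cultured in 96-well plates, with a 48-hour exposure period. Abbreviation: GI50, concentration required for 50% inhibition of growth. Definition used: TGI = concentration required for complete inhibition of growth.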
# Tests used:
# Test in all cases: NCI-60 cell line screen, 48 h
# [1] = system: SK-MEL-28 melanoma
# [2] = system: SF-295 CNS
# [3] = system: OVCAR-8 ovarian
# [4] = system: SNB-75 CNS
# [5] = system: ACHN renal
# [6] = system: NCI-H226 lung
# [7] = system: SK-MEL-2 melanoma
# [8] = system: NCI-H460 lung
# [9] = system: MOLT-4 leukemia
# [10] = system: HOP-62 NSCLC
# [11] = system: KM12 colon
# [12] = system: HS 578T breast
# [13] = system: BT-549 breast
# [14] = system: NCI-H522 lung
# [15] = system: TK-10 renal
# [16] = system: UACC-257 melanoma
# [17] = system: NCI-H23 lung
# [18] = system: SN12C renal
# [19] = system: MDA-MB-231 breast
# [20] = system: A498 renal
# [21] = system: SF-539 CNS
# [22] = system: T-47D breast
# [23] = system: MDA-MB-435
# [24] = system: MALME-3M melanoma
# [25] = system: HOP-92 NSCLC
# [26] = system: OVCAR-4 ovarian
# [27] = system: HL-60(TB) leukemia
# [28] = system: RPMI-8226 leukemia
# [29] = system: SNB-19 CNS
# [30] = system: SK-MEL-5 melanoma
# [31] = system: EKVX NSCLC
# [32] = system: CCRF-CEM leukemia
# [33] = system: UACC-62 melanoma
# [34] = system: M14 melanoma
# [35] = system: NCI/ADR-RES ovarian
# [36] = system: CAKI-1 renal
# [37] = system: OVCAR-5 ovarian
# [38] = system: DU-145 prostate
# [39] = system: SW-620 colon
# [40] = system: HCC-2998 colon
# [41] = system: HCT-15 colon
# [42] = system: MCF7 breast
# [43] = system: HCT-116 colon
# [44] = system: A549 NSCLC
# [45] = system: 786-0 renal
# [46] = system: IGROV1 ovarian
# [47] = system: COLO 205 colon
# [48] = system: UO-31 renal
# [49] = system: HT29 colon
# [50] = system: SK-OV-3 ovarian
# [51] = system: OVCAR-3 ovarian
# [52] = system: LOX IMVI melanoma
# [53] = system: PC-3 prostate
# [54] = system: SF-268 CNS
# [55] = system: RXF 393 renal
smiles,measurement,setting,value
CCOC(=O)c1nnn(-c2no[n+]([O-])c2-c2ccc(OC)cc2)c1COc1cccc2cccnc12,GI50,[1],2.22 µM
same,TGI,[1],6.15 µM
same,GI50,[2],3.09 µM
same,TGI,[2],13.7 µM
same,GI50,[3],2.23 µM
same,TGI,[3],8.03 µM
same,GI50,[4],3.41 µM
same,TGI,[4],14.1 µM
same,GI50,[5],1.7 µM
same,TGI,[5],3.29 µM
same,GI50,[6],6.3 µM
same,TGI,[6],39.7 µM
same,GI50,[7],1.98 µM
same,TGI,[7],9.95 µM
same,GI50,[8],3.29 µM
same,TGI,[8],11.5 µM
same,GI50,[9],1.91 µM
same,TGI,[9],8.47 µM
same,GI50,[10],4.7 µM
same,TGI,[10],25.9 µM
same,GI50,[11],4.32 µM
same,TGI,[11],17.8 µM
same,GI50,[12],2.76 µM
same,TGI,[12],13.3 µM
same,GI50,[13],0.657 µM
same,TGI,[13],3.1 µM
same,GI50,[14],0.51 µM
same,TGI,[14],2.16 µM
same,GI50,[15],2.59 µM
same,TGI,[15],7.35 µM
same,TGI,[16],25.7 µM
same,GI50,[17],3.79 µM
same,TGI,[17],17.1 µM
same,GI50,[18],0.638 µM
same,TGI,[18],3.55 µM
same,GI50,[19],2.73 µM
same,TGI,[19],7.98 µM
same,GI50,[20],2.15 µM
same,TGI,[20],8.75 µM
same,GI50,[21],2.19 µM
same,TGI,[21],6.13 µM
same,GI50,[22],4.67 µM
same,TGI,[22],28.8 µM
same,GI50,[23],1.16 µM
same,TGI,[23],5.09 µM
same,GI50,[24],2.44 µM
same,TGI,[24],6.31 µM
same,GI50,[25],5.09 µM
same,TGI,[25],20.6 µM
same,GI50,[26],2.34 µM
same,TGI,[26],13.3 µM
same,GI50,[27],1.07 µM
same,TGI,[27],5.31 µM
same,GI50,[28],0.481 µM
same,TGI,[28],3.38 µM
same,GI50,[29],3.25 µM
same,TGI,[29],14 µM
same,GI50,[30],3.46 µM
same,TGI,[30],12.9 µM
same,GI50,[31],7.79 µM
same,TGI,[31],35.2 µM
same,GI50,[32],0.318 µM
same,TGI,[32],> 100 µM
same,GI50,[33],2.38 µM
same,TGI,[33],12.8 µM
same,GI50,[34],1.69 µM
same,TGI,[34],7.49 µM
same,GI50,[35],3.05 µM
same,TGI,[35],21.9 µM
same,GI50,[36],2.23 µM
same,TGI,[36],6.38 µM
same,GI50,[37],2.9 µM
same,TGI,[37],8.21 µM
same,GI50,[38],5.24 µM
same,TGI,[38],17.1 µM
same,GI50,[39],0.399 µM
same,TGI,[39],1.8 µM
same,GI50,[40],3.38 µM
same,TGI,[40],9.98 µM
same,GI50,[41],2.38 µM
same,TGI,[41],7.03 µM
same,GI50,[42],1.97 µM
same,TGI,[42],17 µM
same,GI50,[43],0.391 µM
same,TGI,[43],3.59 µM
same,GI50,[44],3.87 µM
same,TGI,[44],16.1 µM
same,GI50,[45],2.29 µM
same,TGI,[45],5.24 µM
same,GI50,[46],4.27 µM
same,TGI,[46],16 µM
same,GI50,[47],2.33 µM
same,TGI,[47],5.5 µM
same,GI50,[48],2.45 µM
same,TGI,[48],8.2 µM
same,GI50,[49],1.42 µM
same,TGI,[49],3.45 µM
same,GI50,[50],6.12 µM
same,TGI,[50],> 100 µM
same,GI50,[51],2.8 µM
same,TGI,[51],7.05 µM
same,GI50,[52],0.355 µM
same,TGI,[52],1.44 µM
same,GI50,[53],3.98 µM
same,TGI,[53],16.3 µM
same,GI50,[54],3.03 µM
same,TGI,[54],15 µM
same,GI50,[55],1.77 µM
same,TGI,[55],4.07 µM
